Source: paper PMC7155171, “Probing the Open Global Health Chemical Diversity Library for Multistage-Active Starting Points for Next-Generation Antimalarials” (ACS Infectious Diseases, 2020)
Read-outs that look alike come from different tables or passages of the source.

Tests used:
[1] = molecular target: recombinant firefly luciferase (Photinus pyralis, UniProt P08659); assay: biochemical; conditions: read-out: rLuc IC50
[2] = tested on: P. berghei liver stage (PbLuc); assay: P. berghei luciferase liver stage (PbLuc) assay in HepG2-A16-CD81 hepatocytes; format: cell-based, Plasmodium berghei; conditions: 48 h liver stage, HepG2-A16-CD81; for IC50: Plasmodium berghei, HepG2-A16-CD81, 48 h, read-out: Pbluc (EEF) IC50
[3] = tested on: HepG2-A16-CD81 hepatocytes; assay: HepG2 cytotoxicity screening (CellTiter-Glo); conditions: HepG2-A16-CD81, read-out: HepG2 tox IC50
[4] = tested on: P. vivax patient isolates, exoerythrocytic forms (schizonts and hypnozoites); assay: P. vivax liver stage assay in HC04 cells (immunofluorescence); conditions: HC04 cells treated 24 h before sporozoites, nanomolar concentrations, counted day 7
[5] = tested on: P. falciparum Dd2 (PfLuc) line expressing firefly luciferase, asexual blood stage; assay: microbe, parasite or virus in culture; format: cell-based, Plasmodium falciparum; conditions: for IC50 / Emax: Plasmodium falciparum
[6] = tested on: P. falciparum asexual blood stage (wild-type and DDD01061024-resistant Dd2-B2 clones); assay: Lactate dehydrogenase (LDH) asexual blood stage assay; format: cell-based, Plasmodium falciparum; conditions: for IC50: Plasmodium falciparum
Description: Mutations within this site, and indeed at our V259L residue, were previously reported using other known cytochrome b inhibitors including ELQ400[49] and RYL-552.[50]
(§1) Figure S3. DDD01061024 is a cytochrome bc1 inhibitor.
The dual stage inhibitor, DDD01061024, is shown occupying the Q0 site (residues outlined in orange) of a Pf Cyt Bc1 homology model (from PDB: 1BE3) (a). A local V259L substitution (red) in mutant clones may destabilize the interactions within this pocket, helping resistant clones tolerate higher doses of the inhibitor (b). DDD01061024-resistannt mutants show cross-resistance to atovaquone (c), another multistage active antimalarial which targets the Q0 binding site. Dose dependent inhibition was determined using a metabolic endpoint (LDH) before normalizing to controls (n=2). Measuring the percentage of PbGFP infected hepatocytes using a high content imaging system validates the liver-stage potency of DDD01061024 in a fluorescence-based model (d). Infected hepatocytes were counted using luminescence-independent high content imaging in treated wells and normalized to controls over two replicates.
(1 picture or pasted object on this page, not shown here)

[7] = tested on: P. falciparum Dd2; assay: SYBR green I asexual blood stage proliferation assay (96 h); format: cell-based, Plasmodium falciparum; conditions: Plasmodium falciparum
[8] = tested on: P. berghei-GFP (PbGFP) liver stage; assay: P. berghei-GFP liver stage high content imaging in Huh7.5.1 hepatocytes; format: cell-based; conditions: Plasmodium berghei, Huh-7.5.1, 48 h, read-out: liver stage high content imaging assay IC50
Method: For the fluorescent liver stage validation, roughly 2500 P. berghei-GFP (PbGFP) sporozoites[76] were dissected from mosquitoes provided by the NYU Insectary Core Facility and seeded onto a lawn of 5000 Huh7.5.1 hepatocytes in 384-well plates. These assay plates were pretreated with DDD01061024 in 8-point dose response (10–4.57 × 10^–3 μM), with atovaquone (0.5–3.91 × 10^–3 μM) and DMSO (0.5%) as positive and negative controls, respectively. Unlike our standard HepG2 cell line, these Huh7.5.1 cells lack GFP expression, making it preferable for these experiments. After a 48 h incubation in the presence of our test compounds, the presence of GFP positive infected cells were imaged and counted using the Operetta High-content Imaging System (PerkinElmer).
as §1
The dual stage inhibitor, DDD01061024, is shown occupying the Q0 site (residues outlined in orange) of a Pf Cyt Bc1 homology model (from PDB: 1BE3) (a). […] Dose dependent inhibition was determined using a metabolic endpoint (LDH) before normalizing to controls (n=2). Measuring the percentage of PbGFP infected hepatocytes using a high content imaging system validates the liver-stage potency of DDD01061024 in a fluorescence-based model (d). Infected hepatocytes were counted using luminescence-independent high content imaging in treated wells and normalized to controls over two replicates. […]

Chain of recombinant firefly luciferase (P08659 whole entry): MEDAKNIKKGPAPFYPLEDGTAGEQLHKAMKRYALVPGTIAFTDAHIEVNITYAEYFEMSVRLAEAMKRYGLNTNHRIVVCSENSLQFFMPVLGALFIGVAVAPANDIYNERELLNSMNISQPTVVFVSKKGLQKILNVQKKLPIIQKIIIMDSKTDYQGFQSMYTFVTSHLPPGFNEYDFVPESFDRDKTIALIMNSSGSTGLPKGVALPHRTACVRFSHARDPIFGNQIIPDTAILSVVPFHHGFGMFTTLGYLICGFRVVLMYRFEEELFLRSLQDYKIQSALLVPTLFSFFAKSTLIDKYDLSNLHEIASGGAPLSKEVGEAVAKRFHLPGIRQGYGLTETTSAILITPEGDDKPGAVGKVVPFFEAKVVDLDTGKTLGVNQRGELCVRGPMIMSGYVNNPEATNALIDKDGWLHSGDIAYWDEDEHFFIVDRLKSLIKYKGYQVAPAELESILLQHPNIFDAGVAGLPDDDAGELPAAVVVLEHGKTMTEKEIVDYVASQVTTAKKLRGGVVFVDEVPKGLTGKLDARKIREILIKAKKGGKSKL

Cc1cc(NC(=O)C(C)C)n(-c2nc(C)c(C)c(=O)[nH]2)n1 [DDD01027481]
IC50 [1]: > 50000 nM
IC50 [2]: 138 nM
IC50 [3]: > 25000 nM
P. vivax hypnozoites or schizonts after treatment [4]: no detectable hypnozoites or schizonts

CCc1c(C)nc(-n2nc(C3CC3)cc2NC(C)=O)[nH]c1=O [DDD01027733]
IC50 [1]: > 50000 nM
IC50 [2]: 96 nM
IC50 [3]: > 25000 nM
P. vivax hypnozoites or schizonts after treatment [4]: no detectable hypnozoites or schizonts

Cc1ccc(-c2ccc(C3CNCCO3)nc2)cc1 (stereo not shown) [DDD01061024]
IC50 ([5]; DD2, read-out: CDD P. falciparum Luciferase ABS 11-pt Reconfirmation Dose Response (48hr): IC50 (μM), 11-pt dose response, 48hr): 0.533 µM
IC50 ([5]; DD2, 8-pt dose response, 96hr, read-out: CDD P. falciparum Luciferase ABS 8-pt Reconfirmation Dose Response (96hr): IC50): 0.2 µM
Emax ([5]; DD2, 11-pt dose response, 48hr, read-out: CDD P. falciparum Luciferase ABS 11-pt Reconfirmation Dose Response (48hr): Maximum inhibition (%)): 99.6%
IC50 ([5]; DD2, 11-pt dose response, 96hr, read-out: CDD P. falciparum Luciferase ABS 11-pt Reconfirmation Dose Response (96hr): IC50): 0.574 µM
Emax ([5]; DD2, 11-pt dose response, 96hr, read-out: CDD P. falciparum Luciferase ABS 11-pt Reconfirmation Dose Response (96hr): Maximum inhibition (%)): 99.5%
ABS IC50 ([5]; asexual blood stage, assay format not given): submicromolar
IC50 ([6]; DD2, read-out: LDH ABS assay IC50): 521 nM
IC50 [1]: 3.2 nM
Pbluc (EEF) IC50 [2]: submicromolar
IC50 [2]: < 0.141 nM
Emax ([7]; DD2, Sybr Green I, 11-pt dose response, 96hr, read-out: CDD P. falciparum Sybr Green I ABS 11-pt Reconfirmation Dose Response (96hr): Maximum inhibition (%)): 98.9%
IC50 ([7]; 96 h, Dd2, read-out: 96 h SYBR green ABS IC50): 344 nM
IC50 [3]: > 50000 nM
IC50 [8]: 375 nM

O=C1C(O)=C([C@H]2CC[C@H](c3ccc(Cl)cc3)CC2)C(=O)c2ccccc21 [atovaquone]
fold increase of IC50, DDD01061024 mutants vs wild-type [6]: 11 fold
IC50 ([6]; DD2, read-out: IC50 against wild-type parasites): 0.377 nM
IC50 ([6]; DD2, read-out: IC50 in DDD01061024 mutants): 4.19 nM
